Each block holds one molecule with its values, some of them ahead of it.
How the values were obtained:
HDAC6 [1] = molecular target: T1, HDAC6 (Homo sapiens (Human), UniProt Q9UBN7); experiment: IC50 assay by Nanosyn (Caliper microfluidics mobility shift detection); format: biochemical
HDAC6 [2] = molecular target: HDAC6 (Rattus norvegicus (Rat), UniProt A0A8I6GM68); experiment: Autoradiography competition with radiolabeled Example 2 on rat brain slices; format: binding, Sprague-Dawley rat; conditions: Tubastatin A at 100 μM
Procedure: Sagittal slices of Sprague-Dawley rat brains were sectioned (10 μm) with a cryostat (Thermo Scientific HM550) and mounted onto ColorFrost Plus microscope slides (Fisher Scientific 12-550-18) and stored at −20° C. […] After 15 min, 50 μCi of the radiolabeled compound of Example 2 was added to each bath. After 15 minutes, all slides were washed by dipping 10× into buffer and subsequently submerged in 50 mL baths of buffer at 4° C. for 5 minutes. The slides were dried at 35° C. in a vacuum chamber. A phosphorus screen (Perkin Elmer 7001723) was exposed with the slides for 45 minutes and subsequently imaged with a Cyclone Plus Storage Phosphor (Perkin Elmer) detector. ImageJ was used to apply a Gaussian blur (3.0 radius) smoothing and a lookup table (Royal) with equivalent thresholds for brightness was applied. Raw intensity values from gray and white matter were quantified with the ImageJ measurement tool.

[3] = Brain penetrance comparison; conditions: in vivo
[4] = tested on: Human iPSC-derived neural progenitor cells; experiment: Acetylation level assay (Western blot); format: cell-based; conditions: 6 h at 37° C.; for Histone acetylation (H3K9 and H4K12): 10 μM; for amount of cellular acetyl-α-Tubulin: other compounds 10 μM
HDAC11 [5] = molecular target: T2, HDAC11 (Homo sapiens (Human), UniProt Q96DB2); experiment: IC50 assay, BPS Biosciences fluorescence assay; format: biochemical
T2 sequence (Q96DB2 whole entry): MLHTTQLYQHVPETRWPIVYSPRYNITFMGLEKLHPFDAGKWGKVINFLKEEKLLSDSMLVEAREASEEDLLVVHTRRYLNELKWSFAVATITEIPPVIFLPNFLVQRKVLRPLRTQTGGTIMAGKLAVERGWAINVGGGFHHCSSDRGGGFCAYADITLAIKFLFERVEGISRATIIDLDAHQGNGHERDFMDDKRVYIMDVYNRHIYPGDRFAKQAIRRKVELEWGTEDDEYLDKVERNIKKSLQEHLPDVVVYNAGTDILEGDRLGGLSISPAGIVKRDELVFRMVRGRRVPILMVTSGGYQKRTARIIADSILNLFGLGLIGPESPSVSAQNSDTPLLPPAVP

HDAC6 [6] = molecular target: T1, HDAC6; experiment: IC50 assay, BPS Biosciences fluorescence assay; format: biochemical
HDAC2 [7] = molecular target: T3, HDAC2 (Homo sapiens (Human), UniProt Q92769); experiment: IC50 assay by Nanosyn (Caliper microfluidics mobility shift detection); format: biochemical; conditions: IC50 measured by Nanosyn
T3 sequence (Q92769 whole entry): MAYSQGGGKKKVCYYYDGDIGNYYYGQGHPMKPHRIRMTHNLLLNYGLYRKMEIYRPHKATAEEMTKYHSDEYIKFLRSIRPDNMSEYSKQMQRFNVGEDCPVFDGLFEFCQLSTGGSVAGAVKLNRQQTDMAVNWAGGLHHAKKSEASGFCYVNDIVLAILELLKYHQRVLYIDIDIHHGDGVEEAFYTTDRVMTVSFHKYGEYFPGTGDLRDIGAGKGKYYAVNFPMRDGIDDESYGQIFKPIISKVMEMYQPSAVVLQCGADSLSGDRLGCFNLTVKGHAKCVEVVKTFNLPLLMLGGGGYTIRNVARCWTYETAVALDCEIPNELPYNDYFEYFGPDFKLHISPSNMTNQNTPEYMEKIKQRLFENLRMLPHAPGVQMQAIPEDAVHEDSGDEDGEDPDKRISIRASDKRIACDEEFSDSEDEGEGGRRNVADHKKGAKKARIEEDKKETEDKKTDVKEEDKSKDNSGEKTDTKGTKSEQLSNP
Procedure: (§1) IC50 measurements were conducted by BPS Biosciences (Table 1) or by Nanosyn (Table 1A) with an established fluorescence assay. […] A=Martinostat (Caliper (microfluidics mobility shift detection) by Nanosyn (same run, duplicates));

HDAC1 [8] = molecular target: T4, HDAC1 (Homo sapiens (Human), UniProt Q13547); experiment: as above; format: biochemical; conditions: IC50 measured by Nanosyn
T4 sequence (Q13547 whole entry): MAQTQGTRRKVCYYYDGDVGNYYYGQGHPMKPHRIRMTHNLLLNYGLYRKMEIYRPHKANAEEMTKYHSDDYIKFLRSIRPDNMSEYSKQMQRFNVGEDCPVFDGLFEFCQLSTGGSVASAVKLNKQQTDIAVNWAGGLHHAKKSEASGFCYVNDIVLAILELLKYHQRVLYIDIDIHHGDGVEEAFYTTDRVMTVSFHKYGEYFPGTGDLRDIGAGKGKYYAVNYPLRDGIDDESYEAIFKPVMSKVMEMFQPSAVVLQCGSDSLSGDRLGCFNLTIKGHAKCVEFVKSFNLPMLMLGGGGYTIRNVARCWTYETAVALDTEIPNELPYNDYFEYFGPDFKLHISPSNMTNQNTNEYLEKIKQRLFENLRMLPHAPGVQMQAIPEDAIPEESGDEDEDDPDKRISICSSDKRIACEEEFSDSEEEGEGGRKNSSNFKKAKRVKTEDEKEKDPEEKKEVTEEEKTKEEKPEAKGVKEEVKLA
Procedure: as §1

HDAC3 [9] = molecular target: T5, HDAC3 (Homo sapiens (Human), UniProt O15379); experiment: as above; format: biochemical; conditions: IC50 measured by Nanosyn
Procedure: as §1

HDAC10 [10] = molecular target: T6, HDAC10 (Homo sapiens (Human), UniProt Q969S8); experiment: as above; format: biochemical; conditions: IC50 measured by Nanosyn
Procedure: as §1

HDAC9 [11] = molecular target: T7, HDAC9 (Homo sapiens (Human), UniProt Q9UKV0); experiment: IC50 assay, BPS Biosciences fluorescence assay; format: biochemical
T7 sequence (Q9UKV0 whole entry): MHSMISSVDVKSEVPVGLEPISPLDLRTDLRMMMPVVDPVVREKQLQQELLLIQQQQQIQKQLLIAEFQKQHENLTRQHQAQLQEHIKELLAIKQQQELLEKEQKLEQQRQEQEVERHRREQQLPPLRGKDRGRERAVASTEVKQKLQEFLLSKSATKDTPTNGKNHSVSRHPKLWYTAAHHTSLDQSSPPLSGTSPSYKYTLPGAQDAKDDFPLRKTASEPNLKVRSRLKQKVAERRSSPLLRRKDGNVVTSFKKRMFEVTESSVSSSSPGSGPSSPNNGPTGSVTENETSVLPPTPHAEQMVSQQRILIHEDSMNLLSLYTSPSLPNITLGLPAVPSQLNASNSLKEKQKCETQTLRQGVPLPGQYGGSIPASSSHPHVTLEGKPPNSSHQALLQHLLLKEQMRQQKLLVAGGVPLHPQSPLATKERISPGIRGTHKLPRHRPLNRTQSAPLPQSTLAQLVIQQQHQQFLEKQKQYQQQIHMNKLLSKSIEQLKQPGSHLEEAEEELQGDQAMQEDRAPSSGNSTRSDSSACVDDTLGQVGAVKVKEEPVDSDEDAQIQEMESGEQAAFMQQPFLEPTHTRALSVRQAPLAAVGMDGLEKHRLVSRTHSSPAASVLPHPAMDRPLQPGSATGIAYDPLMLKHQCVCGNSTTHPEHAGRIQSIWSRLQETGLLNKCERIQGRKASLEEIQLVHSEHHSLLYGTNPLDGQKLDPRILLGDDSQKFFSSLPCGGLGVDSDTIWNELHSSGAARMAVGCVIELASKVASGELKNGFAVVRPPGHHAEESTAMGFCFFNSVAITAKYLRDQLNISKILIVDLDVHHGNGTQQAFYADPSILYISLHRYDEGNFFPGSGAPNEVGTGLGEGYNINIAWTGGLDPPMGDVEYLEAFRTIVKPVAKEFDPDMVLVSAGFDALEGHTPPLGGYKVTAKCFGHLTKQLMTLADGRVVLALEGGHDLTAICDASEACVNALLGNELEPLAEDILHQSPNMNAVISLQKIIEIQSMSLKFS

HDAC8 [12] = molecular target: T8, HDAC8 (Homo sapiens (Human), UniProt Q9BY41); experiment: IC50 assay, BPS Biosciences fluorescence assay; format: biochemical
T8 sequence (Q9BY41 whole entry): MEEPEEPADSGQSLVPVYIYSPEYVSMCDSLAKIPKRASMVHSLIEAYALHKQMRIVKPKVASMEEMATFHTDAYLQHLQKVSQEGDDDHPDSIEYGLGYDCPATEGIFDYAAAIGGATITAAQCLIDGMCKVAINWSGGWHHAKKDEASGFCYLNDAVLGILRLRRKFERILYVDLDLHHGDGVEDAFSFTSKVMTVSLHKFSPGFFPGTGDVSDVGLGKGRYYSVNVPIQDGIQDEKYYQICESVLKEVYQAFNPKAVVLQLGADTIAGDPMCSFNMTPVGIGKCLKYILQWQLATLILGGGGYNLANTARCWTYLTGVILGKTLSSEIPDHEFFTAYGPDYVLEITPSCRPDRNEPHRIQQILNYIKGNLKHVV

HDAC7 [13] = molecular target: T9, HDAC7 (Homo sapiens (Human), UniProt Q8WUI4); experiment: IC50 assay, BPS Biosciences fluorescence assay; format: biochemical
HDAC4 [14] = molecular target: T10, HDAC4 (Homo sapiens (Human), UniProt P56524); experiment: IC50 assay, BPS Biosciences fluorescence assay; format: biochemical
T10 sequence (P56524 whole entry): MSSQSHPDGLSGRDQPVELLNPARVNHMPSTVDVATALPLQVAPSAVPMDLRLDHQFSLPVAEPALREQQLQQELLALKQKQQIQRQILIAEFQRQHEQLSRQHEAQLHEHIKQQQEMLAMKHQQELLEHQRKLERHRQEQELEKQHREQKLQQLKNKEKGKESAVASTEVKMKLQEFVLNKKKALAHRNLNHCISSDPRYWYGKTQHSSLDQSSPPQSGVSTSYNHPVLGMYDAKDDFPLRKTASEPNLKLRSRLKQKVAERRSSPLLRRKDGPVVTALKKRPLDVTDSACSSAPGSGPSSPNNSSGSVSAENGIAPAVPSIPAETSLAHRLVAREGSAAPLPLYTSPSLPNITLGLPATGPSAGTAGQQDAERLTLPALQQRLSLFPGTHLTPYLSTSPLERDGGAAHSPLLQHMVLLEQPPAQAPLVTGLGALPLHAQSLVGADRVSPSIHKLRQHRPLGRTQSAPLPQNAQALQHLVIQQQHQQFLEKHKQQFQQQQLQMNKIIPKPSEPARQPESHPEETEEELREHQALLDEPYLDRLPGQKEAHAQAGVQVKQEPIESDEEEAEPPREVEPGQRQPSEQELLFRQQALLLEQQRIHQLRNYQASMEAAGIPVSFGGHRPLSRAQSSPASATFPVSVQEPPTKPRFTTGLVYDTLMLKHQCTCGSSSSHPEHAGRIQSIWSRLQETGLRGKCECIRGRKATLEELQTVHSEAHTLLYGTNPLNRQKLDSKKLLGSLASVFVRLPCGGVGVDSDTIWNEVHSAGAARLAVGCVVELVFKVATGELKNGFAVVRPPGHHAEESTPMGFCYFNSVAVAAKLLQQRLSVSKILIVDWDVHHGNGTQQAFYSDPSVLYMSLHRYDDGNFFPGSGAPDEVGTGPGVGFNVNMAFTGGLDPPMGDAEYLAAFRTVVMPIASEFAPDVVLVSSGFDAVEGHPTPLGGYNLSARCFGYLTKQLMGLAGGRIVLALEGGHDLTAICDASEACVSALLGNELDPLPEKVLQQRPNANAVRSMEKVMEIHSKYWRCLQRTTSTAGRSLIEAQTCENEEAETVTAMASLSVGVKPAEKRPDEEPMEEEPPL

HDAC7 [15] = molecular target: T9, HDAC7; experiment: IC50 assay by Nanosyn (Caliper microfluidics mobility shift detection); format: biochemical; conditions: IC50 measured by Nanosyn
HDAC2 [16] = molecular target: T3, HDAC2; experiment: IC50 assay, BPS Biosciences fluorescence assay; format: biochemical; conditions: BPS Biosciences fluorescence assay
HDAC3 [17] = molecular target: T5, HDAC3; experiment: IC50 assay, BPS Biosciences fluorescence assay; format: biochemical; conditions: BPS Biosciences fluorescence assay
HDAC4 [18] = molecular target: T10, HDAC4; experiment: IC50 assay by Nanosyn (Caliper microfluidics mobility shift detection); format: biochemical; conditions: IC50 measured by Nanosyn
HDAC5 [19] = molecular target: T11, HDAC5 (Homo sapiens (Human), UniProt Q9UQL6); experiment: IC50 assay, BPS Biosciences fluorescence assay; format: biochemical
HDAC11 [20] = molecular target: T2, HDAC11; experiment: IC50 assay by Nanosyn (Caliper microfluidics mobility shift detection); format: biochemical; conditions: IC50 measured by Nanosyn
HDAC10 [21] = molecular target: T6, HDAC10; experiment: IC50 assay, BPS Biosciences fluorescence assay; format: biochemical; conditions: BPS Biosciences fluorescence assay
HDAC9 [22] = molecular target: T7, HDAC9; experiment: IC50 assay by Nanosyn (Caliper microfluidics mobility shift detection); format: biochemical; conditions: IC50 measured by Nanosyn
HDAC5 [23] = molecular target: T11, HDAC5; experiment: as above; format: biochemical; conditions: IC50 measured by Nanosyn
HDAC8 [24] = molecular target: T8, HDAC8; experiment: as above; format: biochemical; conditions: IC50 measured by Nanosyn
HDAC1 [25] = molecular target: T4, HDAC1; experiment: IC50 assay, BPS Biosciences fluorescence assay; format: biochemical; conditions: BPS Biosciences fluorescence assay
PET/CT imaging in rats = format: in vivo, Sprague-Dawley rats
Procedure: 8 male Sprague-Dawley rats (Charles River Laboratories) were used for PET imaging. […] For intravenous administration, a catheter with an extension line was placed in a lateral tail vein. Each animal received a bolus injection of either vehicle (1:1:8 DMSO/Tween80/saline) or blocking agent in solution (1 mg/kg, 1 mg/mL in 1:1:8 DMSO/Tween80/saline) immediately prior to injection of the radiotracer.
After injection of a radiotracer bolus ([…] Example 2) a 90 min dynamic PET scan was acquired in pairs for all animals. PET scans were performed on a GammaMedica Triumph PET/CT/SPECT scanner, corrected for attenuation with a μ-map derived from the corresponding CT image, which was acquired immediately following the PET scan. The dynamic PET data was binned into 38 timeframes (8×15 s, 8×1 min, 10×2 min, 12×5) and reconstructed individually via an iterative MLEM (maximum likelihood expectation maximization) algorithm in 16 iterations.
PET images were to the CT image acquired from the same animal using AMIDE Data sets were cropped and all further image analysis was conducted using PMOD 3.3 (PMOD Technologies, Zurich, Switzerland). For maximum consistency, the data were coregistered to the Schiffer Px Rat rat brain template and data was derived from a whole brain VOI (volumes of interest) for time activity curves.

[26] = BPS Biosciences fluorescence assay

T1 sequence (Q9UBN7 whole entry): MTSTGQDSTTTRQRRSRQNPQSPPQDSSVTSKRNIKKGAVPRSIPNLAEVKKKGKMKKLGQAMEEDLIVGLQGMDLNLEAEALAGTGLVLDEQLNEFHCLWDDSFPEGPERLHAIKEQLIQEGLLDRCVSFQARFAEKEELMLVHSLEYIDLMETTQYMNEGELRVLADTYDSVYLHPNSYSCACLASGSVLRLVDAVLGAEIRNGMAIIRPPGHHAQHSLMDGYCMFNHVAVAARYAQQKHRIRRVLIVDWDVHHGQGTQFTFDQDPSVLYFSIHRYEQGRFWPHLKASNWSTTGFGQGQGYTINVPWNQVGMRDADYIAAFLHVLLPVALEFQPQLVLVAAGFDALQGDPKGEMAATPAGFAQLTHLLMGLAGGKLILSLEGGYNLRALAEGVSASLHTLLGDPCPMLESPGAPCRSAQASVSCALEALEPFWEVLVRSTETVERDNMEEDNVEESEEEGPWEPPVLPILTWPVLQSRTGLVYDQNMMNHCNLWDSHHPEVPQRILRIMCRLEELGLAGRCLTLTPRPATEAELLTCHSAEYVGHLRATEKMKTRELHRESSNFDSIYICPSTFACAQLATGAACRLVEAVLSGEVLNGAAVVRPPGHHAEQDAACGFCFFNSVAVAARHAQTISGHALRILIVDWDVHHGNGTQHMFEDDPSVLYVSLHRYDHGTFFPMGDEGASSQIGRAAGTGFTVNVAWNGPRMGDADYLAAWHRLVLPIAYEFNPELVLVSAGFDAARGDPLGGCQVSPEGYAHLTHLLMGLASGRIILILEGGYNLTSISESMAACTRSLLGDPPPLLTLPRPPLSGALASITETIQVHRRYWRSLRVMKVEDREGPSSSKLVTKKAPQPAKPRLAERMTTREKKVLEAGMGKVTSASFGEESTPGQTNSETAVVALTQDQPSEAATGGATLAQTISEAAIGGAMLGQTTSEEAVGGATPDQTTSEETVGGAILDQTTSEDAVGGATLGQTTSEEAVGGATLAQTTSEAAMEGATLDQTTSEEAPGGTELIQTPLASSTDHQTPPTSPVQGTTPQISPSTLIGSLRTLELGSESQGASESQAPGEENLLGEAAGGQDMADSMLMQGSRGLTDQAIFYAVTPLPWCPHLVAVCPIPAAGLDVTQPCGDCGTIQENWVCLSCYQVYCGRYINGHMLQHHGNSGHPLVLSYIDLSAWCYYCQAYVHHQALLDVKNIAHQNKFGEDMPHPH

- IC50 (HDAC6 [1]; Nanosyn (Table 1A)): 1380 nM
SMILES: O=C(NO)c1ccc(CNC23CC4CC(CC(C4)C2)C3)cc1 [Example 18, 4-((((3s,5s,7s)-adamantan-1-yl)amino)methyl)-N-hydroxybenzamide]

- IC50 (HDAC6 [1]; Nanosyn (Table 1A)): 89 nM
SMILES: O=C(NO)c1ccc(CNCC23CC4CC(CC(C4)C2)C3)cc1F [Example 8, 4-((((Adamantan-1-yl)methyl)amino)methyl)-2-fluoro-N-hydroxybenzamide]

- IC50 (HDAC6 [1]; Nanosyn (Table 1A)): 323 nM
SMILES: CC(CC12CC3CC(CC(C3)C1)C2)NCc1ccc(C(=O)NO)cc1 (centres unmarked) [Example 19, 4-(((1-(adamantan-1-yl)propan-2-yl)amino)methyl)-N-hydroxybenzamide]

- IC50 (HDAC6 [1]; Nanosyn (Table 1A)): 121 nM
SMILES: CCC(N(C)Cc1ccc(C(=O)NO)cc1)C12CC3CC(CC(C3)C1)C2 (centres unmarked) [Example 22, 4-(((1-((3r,5r,7r)-adamantan-1-yl)propyl)(methyl)amino)methyl)-N-hydroxybenzamide]

- Brain-penetrant? [3]: +/−
SMILES: CN1CCc2c(c3ccccc3n2Cc2ccc(C(=O)NO)cc2)C1 [Tubastatin A]
- amount of bound radioactivity (radiolabeled Example 2) on rat brain slices (HDAC6 [2]): reduce the amount of bound radioactivity to the same background as 10 μM Example 1
- Histone acetylation (H3K9 and H4K12) [4]: remained unaltered
- amount of cellular acetyl-α-Tubulin ([4]; ACY1215 5 μM): increased

- IC50 (HDAC6 [1]; Nanosyn (Table 1A)): 574 nM
SMILES: Cc1cc(C(=O)NO)ccc1CNCC12CC3CC(CC(C3)C1)C2 [Example 11, 4-((((adamantan-1-yl)methyl)amino)methyl)-3-methyl-N-hydroxybenzamide]

- IC50 (HDAC11 [5]; [26]): > 1000 nM
- inhibition at 1 µM (HDAC11 [5]; at 1 μM, BPS Biosciences, read-out: HDAC11 Percentage Inhibition): 17%
- IC50 (HDAC6 [6]): 48 nM
- IC50 (HDAC2 [7]): 4 nM
- IC50 (HDAC1 [8]): 1.2 nM
- IC50 (HDAC3 [9]): 0.3 nM
- IC50 (HDAC10 [10]): 2 nM
- IC50 (HDAC9 [11]; [26]): > 1000 nM
- inhibition at 1 µM (HDAC9 [11]; at 1 μM, BPS Biosciences, read-out: HDAC9 Percentage Inhibition): 12%
- IC50 (HDAC8 [12]): > 1000 nM
- IC50 (HDAC7 [13]): > 1000 nM
- IC50 (HDAC4 [14]; [26]): > 1000 nM
- inhibition at 1 µM (HDAC4 [14]; at 1 μM, BPS Biosciences, read-out: HDAC4 Percentage Inhibition): 39%
- IC50 (HDAC7 [15]): > 1000 nM
- IC50 (HDAC2 [16]): 22 nM
- IC50 (HDAC3 [17]): 7.1 nM
- IC50 (HDAC6 [1]; IC50 measured by Nanosyn): 1.8 nM
- IC50 (HDAC4 [18]): 240 nM
- IC50 (HDAC5 [19]): 980 nM
- IC50 (HDAC11 [20]): > 1000 nM
- IC50 (HDAC10 [21]): 8.9 nM
- IC50 (HDAC9 [22]): > 1000 nM
- IC50 (HDAC5 [23]): 75 nM
- IC50 (HDAC8 [24]): 750 nM
- IC50 (HDAC1 [25]): 6.2 nM
SMILES: CN(Cc1ccc(/C=C/C(=O)NO)cc1)CC12CC3CC(CC(C3)C1)C2 [Martinostat, martinostat]

SMILES: CC(=O)Nc1ccc(C(=O)Nc2ccccc2N)cc1 [CI-994, tacedinaline]
- Histone acetylation (H3K9 and H4K12) [4]: significantly increased
- amount of cellular acetyl-α-Tubulin ([4]; ACY1215 5 μM): did not increase

- IC50 (HDAC6 [1]; Nanosyn (Table 1A)): 81 nM
SMILES: CN(Cc1ccc(C(=O)NO)cc1)CC12CC3CC(CC(C3)C1)C2 [Example 12, 4-(((((3r,5r,7r)-adamantan-1-yl)methyl)(methyl)amino)methyl)-N-hydroxybenzamide]

- IC50 (HDAC6 [1]; Nanosyn (Table 1A)): 12 nM
SMILES: O=C(NO)c1ccc(CNCC23CC4CC(CC(C4)C2)C3)c(F)c1 [Example 16, 4-(((((3r,5r,7r)-adamantan-1-yl)methyl)amino)methyl)-3-fluoro-N-hydroxybenzamide]

- IC50 (HDAC6 [1]; Nanosyn (Table 1A)): 59.9 nM
SMILES: O=C(NO)c1ccc(CNCC23CC4CC(CC(C4)C2)C3)c(Br)c1 [Example 15, 4-((((adamantan-1-yl)methyl)amino)methyl)-3-bromo-N-hydroxybenzamide]

- IC50 (HDAC6 [1]; Nanosyn (Table 1A)): 84 nM
SMILES: O=C(NO)c1ccc(CNCC2CCCCC2)cc1 [Example 25, 4-(((cyclohexylmethyl)amino)methyl)-N-hydroxybenzamide]

SMILES: O=C(CCCCCCNC(=O)c1cnc(N(c2ccccc2)c2ccccc2)nc1)NO [ACY-1215, ricolinostat]
- Brain-penetrant? [3]: −
- acetylation of H4K12 ([4]; ACY1215 5 μM): significantly increased
- amount of cellular acetyl-α-Tubulin ([4]; ACY1215 5 μM): increased

- IC50 (HDAC6 [1]; Nanosyn (Table 1A)): 13.6 nM
SMILES: O=C(NO)c1cc(F)c(CNCC23CC4CC(CC(C4)C2)C3)c(F)c1 [Example 9, 4-((((Adamantan-1-yl)methyl)amino)methyl)-3,5-difluoro-N-hydroxybenzamide]

- IC50 (HDAC6 [1]; Nanosyn (Table 1A)): 1190 nM
SMILES: CCCCCN(Cc1ccc(C(=O)NO)cc1)CC1CCC2CC1C2(C)C (centres unmarked) [Example 24, 4-((((6,6-dimethylbicyclo[3.1.1]heptan-2-yl)methyl)(pentyl)amino)methyl)-N-hydroxybenzamide]

- IC50 (HDAC6 [1]; Nanosyn (Table 1A)): 26.7 nM
SMILES: O=C(NO)c1ccc(CNCC23CC4CC(CC(C4)C2)C3)nc1 [Example 13, 6-((((adamantan-1-yl)methyl)amino)methyl)-N-hydroxynicotinamide]

- IC50 (HDAC6 [1]; Nanosyn (Table 1A)): 1020 nM
SMILES: O=C(NO)c1ccc(CNCC23CC4CC(CC(C4)C2)C3)c(C(F)(F)F)c1 [Example 10, 4-((((adamantan-1-yl)methyl)amino)methyl)-3-trifluoromethyl-N-hydroxybenzamide]

SMILES: CC1(C)C2CCC(CNCc3ccc(C(=O)NO)cc3)C1C2 (centres unmarked) [Example 23, 4-((((6,6-dimethylbicyclo[3.1.1]heptan-2-yl)methyl)amino)methyl)-N-hydroxybenzamide]
- IC50 (HDAC6 [1]; Nanosyn (Table 1A)): 149 nM

- IC50 (HDAC6 [1]; Nanosyn (Table 1A)): 74.8 nM
SMILES: O=C(NO)c1ccc(CNCC23CC4CC(CC(C4)C2)C3)c(Cl)c1 [Example 14, 4-((((adamantan-1-yl)methyl)amino)methyl)-3-chloro-N-hydroxybenzamide]

- IC50 (HDAC6 [1]; Nanosyn (Table 1A)): 35 nM
SMILES: O=C(NO)c1ccc(CNCC23CC4CC(CC(C4)C2)C3)cc1 [Example 17, 4-(((((3r,5r,7r)-adamantan-1-yl)methyl)amino)methyl)-N-hydroxybenzamide]

- IC50 (HDAC6 [1]; Nanosyn (Table 1A)): 213 nM
SMILES: CCC(NCc1ccc(C(=O)NO)cc1)C12CC3CC(CC(C3)C1)C2 (centres unmarked) [Example 21, 4-(((1-((3r,5r,7r)-adamantan-1-yl)propyl)amino)methyl)-N-hydroxybenzamide]

SMILES: CN(Cc1ccc(C(=O)NO)cc1[18F])CC12CC3CC(CC(C3)C1)C2 [Example 2, 4-((((Adamantan-1-yl)methyl)(methyl)amino)methyl)-3-[^18F]fluoro-N-hydroxybenzamide]
- brain uptake and retention (PET/CT imaging in rats; radiotracer, PET): excellent
- off-rate in preclinical PET (PET/CT imaging in rats; rat, in vivo): slow
